Measurements published in patent US11884675B2, “Heterocyclic compounds as triggering receptor expressed on myeloid cells 2 agonists and methods of use” (AMGEN INC., priority 2020, dated 2024).

target: hTREM2 (Homo sapiens, UniProt Q9NZC2); assay: TREM2 activity by cellular Syk phosphorylation (AlphaScreen/AlphaLISA) in TREM2/DAP12-HEK cells, used for Examples 1-305; format: cell-based; parameters: expressed in transfected cells; conditions: HEK293 Cells
Summary of the method: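 Single-cell-cloned HEK293 cells overexpressing TREM2 and DAP12, seeded 20 h, exposed to test articles (1% final DMSO) for 45 min at room temperature. Lysates read for phospho-Syk (Tyr525/526) vs total Syk by AlphaScreen. Signal normalised as percent of control between isotype IgG and 100 nM anti-TREM2 antibody; 4-parameter logistic fit.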

hTREM2, sequence (Q9NZC2 19-230): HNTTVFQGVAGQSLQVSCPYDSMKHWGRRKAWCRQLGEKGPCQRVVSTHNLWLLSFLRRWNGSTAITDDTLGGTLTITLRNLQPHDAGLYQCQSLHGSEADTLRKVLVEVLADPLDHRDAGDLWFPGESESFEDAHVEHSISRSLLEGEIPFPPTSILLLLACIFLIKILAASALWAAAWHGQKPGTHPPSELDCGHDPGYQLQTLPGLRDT
hTREM2, sequence (O43914 22-113 partner): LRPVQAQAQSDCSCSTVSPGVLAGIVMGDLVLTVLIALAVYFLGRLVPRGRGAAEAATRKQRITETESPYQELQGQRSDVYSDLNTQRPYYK

Compound | EC50 | hTREM2 Emax
Cc1cc([C@@H]2C[C@H](c3nc(-c4ccc(F)cc4F)c4nc(C)c(C)nc4n3)CCO2)ccn1 [Example 252, 4-(2,4-difluorophenyl)-6,7-dimethyl-2-((2S,4R)-2-(2-methylpyridin-4-yl)tetrahydro-2H-pyran-4-yl)pteridine] | ≤ 50 nM | +++ (Emax>150 and ≤250)
Cc1cc([C@H]2CN(c3nc(-c4ccc(F)cc4F)c4ccc(C)nc4n3)CCO2)ccn1 [Example 93, 4-(2,4-difluorophenyl)-7-methyl-2-((2S)-2-(2-methyl-4-pyridinyl)-4-morpholinyl)pyrido[2,3-d]pyrimidine] | ≤ 50 nM | +++ (Emax>150 and ≤250)
Cc1ncc([C@H]2CN(c3nc(-c4ccc(C(F)(F)F)nc4)c4nc(C)c(C)nc4n3)CCO2)cn1 [Example 294, (S)-4-(6,7-dimethyl-4-(6-(trifluoromethyl)pyridin-3-yl)pteridin-2-yl)-2-(2-methylpyrimidin-5-yl)morpholine] | 500 to 3000 nM | +++ (Emax>150 and ≤250)
Cc1ccc2c(n1)nc(N1CCO[C@@H](c3cnn(C)c3)C1)nc2[C@H]1C[C@@H](C(F)(F)F)C1 [Example 275, (S)-2-(1-methyl-1H-pyrazol-4-yl)-4-(7-methyl-4-((1s,3R)-3-(trifluoromethyl)cyclobutyl)pyrido[2,3-d]pyrimidin-2-yl)morpholine] | 3000 to 100000 nM | + (Emax>45 and ≤100)
Cc1nc2nc([C@H]3C[C@@H](C)O[C@@H](c4cnn(C)c4)C3)nc(-c3ccc(Cl)cc3F)c2nc1C (single isomer, unassigned) [Example 216] | ≤ 50 nM | +++ (Emax>150 and ≤250)
Cc1nc2nc(N3CCO[C@@H](c4cnn(C)c4)C3)nc(-c3ccc(C(F)(F)F)cc3F)c2nc1C [Example 17, 4-(2-fluoro-4-(trifluoromethyl)phenyl)-6,7-dimethyl-2-((2S)-2-(1-methyl-1H-pyrazol-4-yl)-4-morpholinyl)pteridine] | ≤ 50 nM | ++++ (Emax>250)

Further lines, results first:

EC50 | hTREM2 Emax | Compound
≤ 50 nM | +++ (Emax>150 and ≤250) | Cc1nc2nc(N3CCO[C@@H](c4cnn(C)c4)C3)nc(-c3ccc(C(F)(F)F)nc3)c2nc1C [Example 19, 6,7-dimethyl-2-((2S)-2-(1-methyl-1H-pyrazol-4-yl)-4-morpholinyl)-4-(6-(trifluoromethyl)-3-pyridinyl)pteridine]
50 to 500 nM | ++ (Emax>100 and ≤150) | Cc1cc([C@@H]2CN(c3nc4nc(C)cnc4c([C@H]4C[C@@H](C(F)(F)F)C4)n3)CCO2)cnn1 (single isomer, unassigned) [Example 14]
≤ 50 nM | +++ (Emax>150 and ≤250) | Cc1nc2nc(N3CCO[C@@H](c4cnn(C5CC5)c4)C3)nc(C3CCC(F)(F)CC3)c2nc1C [Example 138, 2-((2S)-2-(1-cyclopropyl-1H-pyrazol-4-yl)-4-morpholinyl)-4-(4,4-difluorocyclohexyl)-6,7-dimethylpteridine]
≤ 50 nM | +++ (Emax>150 and ≤250) | Cc1cc([C@H]2CN(c3nc4nc(C)c(C)nc4c([C@H]4C[C@H](C(F)(F)F)C4)n3)CCO2)cnn1 [Example 51, 6,7-dimethyl-2-((2S)-2-(6-methyl-4-pyridazinyl)-4-morpholinyl)-4-(trans-3-(trifluoromethyl)cyclobutyl)pteridine]
≤ 50 nM | ++ (Emax>100 and ≤150) | Cc1cc([C@H]2CN(c3nc(C4CC5(C4)CC(F)(F)C5)c4nc(C)c(C)nc4n3)CCO2)ccn1 [Example 56, 4-(6,6-difluorospiro[3.3]heptan-2-yl)-6,7-dimethyl-2-((2S)-2-(2-methyl-4-pyridinyl)-4-morpholinyl)pteridine]
50 to 500 nM | +++ (Emax>150 and ≤250) | Cc1nc2nc(N3CCO[C@@H](c4cnn(C)c4)C3)nc(C3=CCC(F)(F)CC3)c2nc1C [Example 125, 4-(4,4-difluoro-1-cyclohexen-1-yl)-6,7-dimethyl-2-((2S)-2-(1-methyl-1H-pyrazol-4-yl)-4-morpholinyl)pteridine]
